# Reference: patent US6583147B1, “Pyrazolopyrimidinone derivatives for the treatment of impotence” (Dong A Pharm Co., Ltd., priority 1998, dated 2003)
# Where two headings read alike, the source gives them in different places.
# Tests used:
# [1] = molecular target: T1, Phosphodiesterase-5 enzyme (PDE 5) (Homo sapiens, UniProt O76074); assay: Test for phosphodiesterase-5 (PDE 5) activity; type: biochemical; settings: PDE 5 fraction from human corpus cavernosal tissues
# T1 construct: separated by HPLC (Mono Q anion exchange column) with concentration gradient of 0-500 mM NaCl to elute PDE isozymes; from tissue; host or cells: human corpus cavernosal tissue
# [2] = Metabolism in rat liver (9,000xg supernatant fraction with NADPH); type: in vitro ADME; settings: 10 ug/ml, 37° C., 1 hr, rat liver 9,000xg supernatant with NADPH generating solution
# Protocol: In order to evaluate the extent of metabolism of the compounds of formula 1, the metabolism in rat liver was studied as below similar to the reported method (C. L. Litterist, E. G. Mimnaugh, R. I. Reagan and T. G. Gram., Drug. Metabol. Disposit., 1975, 3, 259-265). In short, the disappearance of compounds after incubation in 9, 000×g supernatant fraction of rat liver homogenate in the presence of NADPH (reduced nicotinamide adenine dinucleotide phosphate) was evaluated.
# First, Sprague-Dawley rat (Korea Experiment Animals, SPF) liver was isolated after perfusion through portal vein with 0.1 M phosphate buffer of pH 7.0 using tissue homogenizer at 4° C. After centrifugation at 9,000×g for 20 min, the supernatants were collected.
# The compound stock solution was spiked (10 ug/ml) into each of the eppendorf tubes containing 1 ml of the mixed solution composing 1 volume of supernatants and 2 volumes of generating solution. The generating solution contains 1 mM NADP, 10 mM glucose-6-phosphate, 50 mM nicotinamide and 5 MM MgCl2 in 0.1 M phosphate buffer of pH 7.0. After vortex-mixing, each test tube was incubated in a water bath kept at 37° C. After 1 hr, was added acetonitrile to the reaction mixture and centrifuged. 100 ul of aliquot of the supernatant was sampled from each test tube for measuring the remnants by high performance liquid chromatography.
# [3] = Solubility in buffer solution in pH=2&5; type: physicochemical; settings: 20 °C, thermodynamic from solid
# Protocol: According to that defined in the Korea Pharmacopoeia, citrate-HCl buffer (pH 2) and citrate-NaOH buffer (pH 5) solutions were added to the powdered compounds of formula 1, respectively. After subsequent severe shaking for 30 sec every 5 min in […] for 30 min, the level of compounds in the filtrate was measured by high performance liquid chromatography.
# rats = assay: Penile erection test using rats; type: in vivo, rat; settings: oral single dose 10 mg/kg in 0.5% methyl cellulose, observed for 2 hours
# [4] = Acute oral toxicity test in rats; settings: SD, rat, in vivo, 1 g/kg; rats, oral single dose; read-out: lethal dose (LD50) of oral administration
# [5] = molecular target: T2, Phosphodiesterase-3 enzyme (PDE 3) (Oryctolagus cuniculus, UniProt G1ST54); assay: Test for phosphodiesterase-3 (PDE 3) activity; type: biochemical; settings: PDE 3 fraction from platelets of a rabbit
# T2 construct: The supernatant was separated by DEAE-cellulose column chromatography (Whatman DE52 bead); from tissue; host or cells: rabbit platelets
# T2 sequence (G1ST54 1-1128): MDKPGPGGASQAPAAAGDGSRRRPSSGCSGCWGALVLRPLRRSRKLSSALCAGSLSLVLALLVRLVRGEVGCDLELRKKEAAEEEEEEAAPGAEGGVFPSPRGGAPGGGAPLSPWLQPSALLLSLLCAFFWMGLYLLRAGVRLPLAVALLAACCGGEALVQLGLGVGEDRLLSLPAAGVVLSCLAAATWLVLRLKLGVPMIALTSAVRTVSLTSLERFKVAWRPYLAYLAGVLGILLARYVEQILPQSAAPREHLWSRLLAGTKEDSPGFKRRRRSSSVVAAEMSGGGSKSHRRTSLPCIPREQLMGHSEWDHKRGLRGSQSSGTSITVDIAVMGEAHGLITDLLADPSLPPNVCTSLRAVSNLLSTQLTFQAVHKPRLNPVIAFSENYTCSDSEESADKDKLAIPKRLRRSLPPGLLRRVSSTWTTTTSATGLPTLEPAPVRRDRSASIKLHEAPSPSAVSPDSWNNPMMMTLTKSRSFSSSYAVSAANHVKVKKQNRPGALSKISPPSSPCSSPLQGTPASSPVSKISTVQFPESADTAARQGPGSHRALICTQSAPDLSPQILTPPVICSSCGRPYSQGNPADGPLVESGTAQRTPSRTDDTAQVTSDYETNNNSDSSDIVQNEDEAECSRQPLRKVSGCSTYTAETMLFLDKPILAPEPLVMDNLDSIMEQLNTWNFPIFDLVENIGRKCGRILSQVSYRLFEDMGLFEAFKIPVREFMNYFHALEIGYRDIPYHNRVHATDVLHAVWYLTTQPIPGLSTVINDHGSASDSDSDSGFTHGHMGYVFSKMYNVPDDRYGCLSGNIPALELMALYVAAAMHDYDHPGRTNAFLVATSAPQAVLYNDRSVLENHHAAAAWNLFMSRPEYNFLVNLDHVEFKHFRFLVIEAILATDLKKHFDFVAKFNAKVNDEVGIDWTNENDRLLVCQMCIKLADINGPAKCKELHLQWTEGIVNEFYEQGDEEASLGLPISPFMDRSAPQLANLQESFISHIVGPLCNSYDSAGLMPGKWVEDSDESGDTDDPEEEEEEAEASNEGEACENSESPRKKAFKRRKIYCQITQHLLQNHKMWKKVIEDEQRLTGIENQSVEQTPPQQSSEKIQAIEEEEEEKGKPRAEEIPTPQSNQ
# Protocol: Phosphodiesterase-3 enzyme (PDE 3) was separated from platelets of a rabbit. About 60 ml of blood was collected from a puncture of the abdominal artery of a rabbit in heparinized syringes. Platelet-rich plasma was harvested by centrifugation for 5 min at 450×g and further centrifuged for 15 min at 1,200×g to precipitate the platelets. The platelets were resuspended in homogenizing buffer (50 mM Tris-HCl, 1 mM MgCl2, pH 7.4), homogenized at 4° C. and ultrasonicated (30 sec/ml). The homogenized solution was centrifuged (105,000×g) for 1 hr at 4° C. to obtain the supernatant in which PDE was dissolved. The supernatant was separated by DEAE-cellulose column chromatography (Whatman DE52 bead) by using eluent (50 mM Tris-HCl, 3.75mM2-mercaptoethanol, pH 6.0) with concentration gradient of 0-1 M sodium acetate to elute PDE isozymes. The PDE activity was measured on the each column fraction by the following process to separate PDE 3 fraction and the inhibition for PDE 3 of the compounds of formula 1 was measured by using the fraction.
# To 1.5 ml tube containing 100 ul of reaction mixture (15 mM Tris-HCl, 5 mM MgCl2, 0.5 mg/ml BSA, pH 7.4) were added appropriate amount of PDE 3 fraction and PDE inhibitor and the solution was mixed well. After [^3H]-cAMP or [^3H]-cGMP (500 nM, 2 uCi/ml) was added, the mixture was reacted in incubator of 30° C. for about 1 hour and the reaction was quenched by putting the tube into boiling water for about 45 seconds to 2 min. The tube was chilled in ice bath for about 5 min. To this tube was added snake venom (1 mg/ml, 100 ul) or 5′-nucleotidase (0.1 unit/tube) and the mixture was reacted in incubator of 37° C. for 10 min and chilled in ice bath. 3 times volume of methanol to the resin was added to the anion exchange resin (Bio-Rad resin, AG1-X2, 200-400 mesh) which had been already washed with 0.5 N HCl, H2O, 0.5 N NaOH, H2O, 0.5 N HCl and H2O in order and adjusted to pH 5. Then 1 ml of the pretreated resin was added to the each tube with vortexing. The mixture was left at 4° C. for 15 min with occasional vortexing and centrifuged (10,000 rpm) for about 5 min to sediment the resin. The supernatant (700 ul) was transferred to a liquid scintillation vial, and mixed with 10 ml of scintillation cocktail. After stabilizing the mixture by leaving it overnight, the radioactivity of the tube was measured by β-counter.
# [6] = citrate-HCl buffer, pH 2, aqueous buffer, citrate-HCl buffer (pH 2), read-out: solubility pH 2
# [7] = citrate-NaOH buffer, pH 5, aqueous buffer, citrate-NaOH buffer (pH 5), read-out: solubility pH 5
smiles,measurement,setting,value
"CCCOc1ccc(S(=O)(=O)NCc2cccnc2)cc1-c1nc2c(CCC)nn(C)c2c(=O)[nH]1 [Example 49, 5-[2-propyloxy-5-(3-pyridylmethylamidosulfonyl)phenyl]-1-methyl-3-propyl-1,6-dihydro-7H-pyrazolo(4,3-d)pyrimidin-7-one]",IC50,[1],0.3 nM
same,remnants (%),[2],71.3%
same,solubility at 30 min,[3]; [6],43 µg/mL
same,PEI (penile erection index),rats,200.0 ± 173.2
same,genital grooming (number of genital groomings),rats,1.3 ± 0.6
same,LD50,[4],> 1000 mg/kg
same,IC50,[5],25200 nM
"CCOc1ccc(S(=O)(=O)NCc2ccccn2)cc1-c1nc2c(CC(C)C)nn(C)c2c(=O)[nH]1 [Example 51, 5-[2-ethoxy-5-(2-pyridylmethylamidosulfonyl)phenyl]-1-methyl-3-isobutyl-1,6-dihydro-7H-pyrazolo(4,3-d)pyrimidin-7-one]",IC50,[1],1.5 nM
same,remnants (%),[2],70.4%
same,solubility at 30 min,[3]; [6],215 µg/mL
same,solubility at 30 min,[3]; [7],1 µg/mL
same,PEI (penile erection index),rats,233.3 ± 152.8
same,genital grooming (number of genital groomings),rats,3.0 ± 2.0
same,LD50,[4],> 1000 mg/kg
same,IC50,[5],> 201000 nM
"CCCOc1ccc(S(=O)(=O)NCc2ccncc2)cc1-c1nc2c(CCC)nn(C)c2c(=O)[nH]1 [Example 44, 5-[2-propyloxy-5-(4-pyridylmethylamidosulfonyl)phenyl]-1-methyl-3-propyl-1,6-dihydro-7H-pyrazolo(4,3-d)pyrimidin-7-one]",IC50,[1],0.328 nM
same,remnants (%),[2],49.8%
same,solubility at 30 min,[3]; [6],373 µg/mL
same,solubility at 30 min,[3]; [7],1 µg/mL
same,PEI (penile erection index),rats,166.7 ± 115.5
same,genital grooming (number of genital groomings),rats,1.3 ± 0.6
same,LD50,[4],> 1000 mg/kg
same,IC50,[5],12600 nM
"CCCOc1ccc(S(=O)(=O)Nc2ccncc2)cc1-c1nc2c(CCC)nn(C)c2c(=O)[nH]1 [Example 35, 5-[2-propyloxy-5-(4-pyridylamidosulfonyl)phenyl]-1-methyl-3-propyl-1,6-dihydro-7H-pyrazolo(4,3-d)pyrimidin-7-one]",IC50,[1],0.935 nM
same,remnants (%),[2],90.6%
same,solubility at 30 min,[3]; [6],11 µg/mL
same,solubility at 30 min,[3]; [7],1 µg/mL
same,PEI (penile erection index),rats,200.0 ± 0.0
same,genital grooming (number of genital groomings),rats,2.0 ± 0.0
same,LD50,[4],> 1000 mg/kg
same,IC50,[5],> 207000 nM
"CCOc1ccc(S(=O)(=O)Nc2ccncc2)cc1-c1nc2c(CC(C)C)nn(C)c2c(=O)[nH]1 [Example 37, 5-[2-ethoxy-5-(4-pyridylamidosulfonyl)phenyl]-1-methyl-3-isobutyl-1,6-dihydro-7H-pyrazolo(4,3-d)pyrimidin-7-one]",IC50,[1],0.897 nM
same,remnants (%),[2],94.8%
same,solubility at 30 min,[3]; [6],99 µg/mL
same,solubility at 30 min,[3]; [7],7 µg/mL
same,PEI (penile erection index),rats,166.7 ± 57.7
same,genital grooming (number of genital groomings),rats,1.3 ± 0.6
same,LD50,[4],> 1000 mg/kg
"CCOc1ccc(S(=O)(=O)NC2CCN(C)C2)cc1-c1nc2c(CC(C)C)nn(C)c2c(=O)[nH]1 (stereo not shown) [Example 54, 5-[2-ethoxy-5-(1-methyl-3-pyrrolidinylamidosulfonyl)phenyl]-1-methyl-3-isobutyl-1,6-dihydro-7H-pyrazolo(4,3-d)pyrimidin-7-one]",IC50,[1],39.1 nM
same,PEI (penile erection index),rats,233.3 ± 230.9
same,genital grooming (number of genital groomings),rats,2.7 ± 2.9
same,LD50,[4],> 1000 mg/kg
same,IC50,[5],> 205000 nM
"CCCOc1ccc(S(=O)(=O)NC(C)C)cc1-c1nc2c(CCC)nn(C)c2c(=O)[nH]1 [Example 3, 5-[2-propyloxy-5-(isopropylamidosulfonyl)phenyl]-1-methyl-3-propyl-1,6-dihydro-7H-pyrazolo(4,3-d)pyrimidin-7-one]",IC50,[1],5.36 nM
same,PEI (penile erection index),rats,233.3 ± 152.8
same,genital grooming (number of genital groomings),rats,2.7 ± 2.1
same,LD50,[4],> 1000 mg/kg
same,IC50,[5],> 223000 nM
"CCCCNS(=O)(=O)c1ccc(OCC)c(-c2nc3c(CCC)nn(C)c3c(=O)[nH]2)c1 [Example 9, 5-[2-ethoxy-5-(butylamidosulfonyl)phenyl]-1-methyl-3-propyl-1,6-dihydro-7H-pyrazolo(4,3-d)pyrimidin-7-one]",IC50,[1],10.7 nM
same,PEI (penile erection index),rats,200.0 ± 100.0
same,genital grooming (number of genital groomings),rats,4.7 ± 1.2
same,LD50,[4],> 1000 mg/kg
same,IC50,[5],> 223000 nM
"CCCc1nn(C)c2c(=O)[nH]c(-c3cc(S(=O)(=O)NCc4cccnc4)ccc3OCC)nc12 [Example 47, 5-[2-ethoxy-5-(3-pyridylmethylamidosulfonyl)phenyl]-1-methyl-3-propyl-1,6-dihydro-7H-pyrazolo(4,3-d)pyrimidin-7-one]",IC50,[1],2.78 nM
same,PEI (penile erection index),rats,200.0 ± 100.0
same,genital grooming (number of genital groomings),rats,3.0 ± 1.0
same,LD50,[4],> 1000 mg/kg
same,IC50,[5],20900 nM
